Reference: a melting point compilation (Tetko et al.; mined from patent text by program, amines drawn as free bases though some values may be those of a salt)

| melting point [°C] | SMILES |
| --- | --- |
| 112 to 114 | COc1ccc(CC2c3c(cc(OC)c(OC)c3O)CCN2C)cc1 (configuration not stated) |
| 67 to 68 | CCCCCCCCCCCCCCCCCNC(=O)OC1CCCOC1COCC(O)CCCCCCO (configuration not stated) |
| 89 to 91 | NS(=O)(=O)OCCc1ccccn1 |
| 270 to 272 | Cc1ccc(-c2cc3ccc(C(=O)O)cc3o2)cc1 |
| 211 to 214 | O=C(NNS(=O)(=O)c1ccccc1)c1ccc2ncccc2c1 |
| 159 to 160 | COc1ccnc(C(=O)N[C@H]2COC(=O)[C@H](Cc3ccccc3)[C@@H](OCSC)[C@H](C)OC2=O)c1O |
| 202 to 203 | O=C(Cc1ccc(-c2ccc(C(CC3CCOCC3)c3ccc(S(=O)(=O)C4CC4)cc3)[nH]2)nc1)N1CCOCC1 (configuration not stated) |
| 143 | CC(=O)OCC(C)C1CCC2C3CC=C4CC(O)CCC4(C)C3CCC12C (configuration not stated) |
| 90 to 92 | O=C1CN(CCCOc2ccc(NC(=O)c3cc(F)cc(N4CCCCC4)c3)c3ccccc23)CCN1 |
| 146 to 147 | Cc1cc(O)c([N+](=O)[O-])c(=O)n1CC(=O)OCc1ccccc1 |
| 128 to 130 | COc1ccc(N2CC(CCN3CCC(O)(c4ccc5c(c4)OCO5)CC3)OC2=O)cc1 (configuration not stated) |
| 230 | S=c1cc(N2CCCC2)ss1 |
| 61 | N#CC(OC1CCCCO1)c1ccc(Cl)c(Cl)c1 (configuration not stated) |
| 142 to 144 | COC(=O)CN(C)C(=O)c1c(OC)ccc2c(Br)c(OC)ccc12 |
| 201 to 209 | COc1ccc(OC)c(S(=O)(=O)n2c(CCCC(=O)O)cc3cc(Cl)ccc32)c1 |
| 57 to 59 | COC(=O)C(=O)c1ccc(OCCCCOc2ccccc2)cc1 |
| 158 to 160 | Fc1ccc(-c2nc3ccc(OC(F)(F)F)cc3[nH]2)cc1 |
| 73 | C=CC(=O)OCCCCCCCCOc1ccc(C(=O)Oc2ccc(C=O)cc2)cc1 |
| 42 to 43 | CCCOc1ccc(CCCCCC(=O)O)cc1 |
| 140 to 141 | Cc1sc(-c2ccccc2)nc1COc1ccc(COc2nn(C)cc2CC(=O)O)cn1 |
| 172 to 175 | COC(=O)C1CCC2C3CCC4CC(O)C=CC4(C)C3C(=O)CC12C (configuration not stated) |
| 207 to 208 | O=c1cc(S)oc2ccccc12 |
| 159 to 167 | O=[N+]([O-])c1ccc(-c2cnc3nc(S(=O)(=O)Cl)nn3c2)cc1 |
| 86 to 87 | CC(C)(C)c1ccc(-c2ccc(C(C)(C)C)c(O)c2)cc1 |
| 105 to 107 | CCCCCCCNC(=O)Nc1c(F)cc(F)cc1CCc1ccc(CC(C)(C)C)cc1 |

| melting point [°C] | SMILES |
| --- | --- |
| 192 to 193 | CCCCCCC(NS(=O)(=O)c1ccc(Cl)cc1)C(=O)Nc1ccc(CC(=O)O)cc1 (racemic) |
| 159 to 160 | C=CCC(O)(CC=C)c1nc(-c2ccncc2)c(-c2ccc(Cl)cc2)n1CC |
| 170 to 172 | CCc1nn2c(-c3cccnc3)ccnc2c1C#N |
| 106 to 113 | CNc1ccc(-c2ncn(-c3ccc(C(F)(F)F)cc3)n2)cc1 |
| 198 to 199 | CCN(CC)C(=O)[C@@H](C)[C@H]1CC[C@H]2[C@@H]3CCC4=CC(=O)CC[C@]4(C)[C@H]3CC[C@]12C |
| 118 to 120 | CCCCCCCCC1C=CC(Oc2ccc(C(=O)O)o2)=C2N=C3CCCC(C)(C)C3=C21 (configuration not stated) |
| 238 to 241 | CCOC(=O)c1cc(C)c2c(c1)CC(=O)N2 |
| 189 to 191 | O=C(CCC(Cl)(Cl)Cl)Nc1cccc(-c2ccnc3c(C(=O)c4cccs4)cnn23)c1 |
| 156 to 157 | O=C(O)Cc1ccc2c(c1)C(=O)Cc1ccccc1O2 |
| 158 to 159 | CC12CCC(=O)C=C1CCCC2n1cc(-c2ccccc2)nn1 (configuration not stated) |
| 108 to 109 | COCOc1c(NC(=O)NCc2cccnc2)cc(OC)cc1C(C)(C)C |
| 79 to 83 | Cn1nc(-c2c(Cl)cncc2Cl)nc1C1(C)CC1(Cl)Cl (configuration not stated) |
| 108 | Cc1cc(-n2cncn2)c2cccc(OCc3c(Cl)ccc(S(=O)(=O)N4CCC[C@H]4C(=O)N4CCN(c5ccccn5)CC4)c3Cl)c2n1 |
| 189 | CCNC(=O)Cc1cc(Oc2ccc(C(F)(F)F)cc2Cl)ccc1[N+](=O)[O-] |
| 92 to 101 | Cc1nn(C)c2ncc3c(c12)CCC(C)C3 (configuration not stated) |
| 254 to 256 | CCCOc1ccc([N+](=O)[O-])cc1C1=NC(=O)C2=NC=NC2=N1 |
| 111 to 114 | CNc1cn(-c2cncnc2)nc1Cl |
| 146 to 148 | O=C(CCCCCl)c1cccc2cc3c(C(=O)CCCCCl)cccc3cc12 |
| 190 to 192 | C[C@@H]1C[C@H](C)CN(S(=O)(=O)c2ccc(Cl)c(C(=O)NCC(=O)O)c2)C1 |
| 152 | CCCCCN(CCCCC)C(=O)CCCCC(=O)O |
| 194 to 195 | O=C(C=c1sc2n(c1=O)Cc1ccccc1N=2)Oc1ccccc1 |
| 94 to 95 | N#CC(Cl)Cc1ccc(Cl)cc1C(=O)c1ccccc1F (configuration not stated) |
| 165 to 168 | CC(C)N1C(=O)NC(c2ccccc2)c2cc3c(cc21)OCO3 (configuration not stated) |
| 135 to 137 | COC(=O)C(=Cc1ccc(OC)c(OC)c1)NC(=O)c1ccccc1 |
| 94 to 95 | Cc1c(-c2ccccc2)oc2c(C(=O)NCCCN3CCN(c4cccc5c4OCC5)CC3)cccc2c1=O |

| melting point [°C] | SMILES |
| --- | --- |
| 41 to 42 | CCOC(=O)c1ccc(/C=C(/COCc2ccc(OC)cc2)Cn2ccnc2)c(Cl)c1 |
| 134 to 136 | Cc1cc(=O)n(-c2cc(C(=O)OC(C)C)c(Cl)cc2F)c(=O)[nH]1 |
| 168 to 170 | COc1ccc(NN=C(Sc2cc(Cl)cc(Cl)c2)C(C)=O)cc1 |
| 152 to 153 | CCc1nn(C2CCCC2)c2c1CCNC2=O |
| 91 to 92 | C=CCN(CC(N)=O)S(=O)(=O)Cc1cccc(C(F)(F)F)c1 |
| 185 | Nc1c(C(=O)Nc2nnn[nH]2)oc2ccccc12 |
| 192 to 193 | Nc1ccc(-c2ccc(-c3ccc(N)cc3Cl)o2)c(Cl)c1 |
| 265 | CC(C)(C)OC(=O)Cn1c(C(=O)O)cc2cnccc21 |
| > 300 | O=C(O)C(=O)CC(=O)c1cn(Cc2ccc3ccccc3n2)c2ccccc2c1=O |
| 207 to 208 | Cc1nnc(-c2ccc3occ(-c4ccc(C=O)c(F)c4)c3c2)o1 |
| 237 to 239 | c1ccc(Nc2ccc3nnn(Cc4ccc5ncccc5c4)c3n2)cc1 |
| 109 to 110 | OCCN(c1ccccc1)c1ccccc1 |
| 220 to 222 | CCCC1=C(C(=O)OCC)C(c2cccc(C#N)c2OC)c2c[nH]nc2N1 (configuration not stated) |
| 75 to 77 | CCCCCCC(=N)NC(=S)Nc1ccccc1Cl |
| 225 | O=C(O)Cc1c(C(=O)c2cc3c(cn2)CCCC3)[nH]c2cc(Cl)ccc12 |
| 174 to 184 | COc1ccccc1-c1ccc(C(=O)N2Cc3ccc(C(=O)N(C)CC(O)CO)n3Cc3ccccc32)cc1C (configuration not stated) |
| 66 to 67 | CC(C)CCSC1C(O)C(CO)OC1n1ccc(=O)[nH]c1=O (configuration not stated) |
| 157 to 158 | C=CC(=O)CC1CN=C(c2cc3cccc(N(C)S(=O)(=O)c4cccs4)c3[nH]2)S1 (configuration not stated) |
| 89 to 92 | COc1nsc(N[C@@H](CC(C)C)C(=O)N2CCC[C@H]2C(=O)O)n1 |
| 155 to 157 | CCNC(=O)N(C)c1ccc(C(O)(C(F)(F)Cl)C(F)(F)Cl)cc1 |
| 162 to 164 | NC(=O)N(O)Cc1cc(Br)cs1 |
| 99 to 100 | COC(=O)CCC(=O)c1ccc(-c2ccc(Cl)cc2)o1 |
| 65 to 67 | CCCC(C(=O)N(CC)CC)n1cc(C)c(-c2ccccc2)n1 (configuration not stated) |
| 99 to 101 | CS(=O)(=O)c1ccc(C(CC2CCCC2)C(=O)Nc2ccccn2)cc1Br (configuration not stated) |
| 172 to 174 | Fc1ccc(Nc2ccnc(Cl)n2)cc1 |

| melting point [°C] | SMILES |
| --- | --- |
| 142 to 143 | CCc1oc2ccccc2c1C(=O)c1cc(-c2ccccc2)c(O)c(-c2ccccc2)c1 |
| 59 | CCCCCCCCCCCCCCOC(=O)CCC1(CO)CCC(=O)O1 (configuration not stated) |
| 142 to 143 | COC(=O)c1cc(C(=O)NCC(=O)O)cc([N+](=O)[O-])c1 |
| 193 to 194 | CN(C)C(=O)Cc1ccc2[nH]cc(CCN3C(=O)c4ccccc4C3=O)c2c1 |
| 102 to 103 | CC(C)N(CCCCO)c1cnc(-c2ccccc2)c(-c2ccccc2)n1 |
| 55 to 57 | CCN(CC)CCCNC(=O)Cn1cc(-c2ccccc2)cn1 |
| 95 | C#CCOc1ccc(C=O)cc1OC |
| 149 to 157 | O=[N+]([O-])c1cc(C(F)(F)F)c(Br)cc1-n1ccnc1 |
| 122 to 124 | CSc1ccc(C(=O)CCC#N)cc1 |
| 223 to 226 | CCCc1cnc2c(NC(=O)c3c(Cl)cccc3Cl)cccc2c1NNC(C)=O |
| 119 | Cc1cc2c(NCCc3cccc(C(F)(F)F)c3)ncnc2o1 |
| 58 to 64 | CCCCCCCCNC(=O)N1CCC(Nc2ccc(CCNC[C@H](O)COc3ccc(F)cc3)cc2)CC1 |
| 143 | Nc1ccc2c(c1)C(=Cc1cccs1)c1ccccc1-2 |
| 233 to 235 | CCOC(=O)Cc1c2c(nn1CC)c(=O)[nH]c1ccccc12 |
| 195 | CCNC(=O)c1ccc(-c2cnc3c(c2)N(Cc2ccccc2)C(=O)CN3)cc1 |
| 224 to 226 | COc1ccc(CS(=O)(=O)c2cc3cc(Cl)ccc3oc2=O)cc1 |
| 64 to 66 | CC(C)Cc1ccc(C(F)C(=O)O)cc1 (configuration not stated) |
| 96 to 97 | Cc1c(C)c2c(c(C)c1O)CC(CCI)O2 (racemic) |
| 167 to 168 | CCN(CC)c1ccc([N+](=O)[O-])c(C(=O)NCC2CCN(C(c3ccccc3)c3ccccc3)CC2)c1 |
| 228 to 229 | COc1cc(C)nc2ccc(NC(=O)C=Cc3ccccc3Cl)cc12 |
| 179 | Cc1cc(C)c(O)c(-c2cc(C(C)C)ccc2C(C)C)c1 |
| > 300 | O=C1NCCn2c1c(-c1ccccc1)c1ccccc1c2=O |

| SMILES | melting point [°C] |
| --- | --- |
| CC(C)Cn1nnc(-c2cccc(-c3ccnc4c(C(=O)c5cccs5)cnn34)c2)n1 | 141 |
| CN1CCN(CC(=O)C2CC3c4cccc5[nH]cc(c45)CC3N(C)C2)CC1 (configuration not stated) | 198 to 202 |
| O=C1c2ccc(Cl)cc2C(=O)N1C1CCN(CCc2c[nH]c3ccccc23)CC1 | 188 to 190 |
| CNC(=O)c1ccccc1Nc1nc(Nc2ccc3c(c2)CCN(CCF)CC3)ncc1Cl | 170 to 174 |
| Cc1nc(-c2ccc(CCC3(O)CN4CCC3CC4)cc2)no1 (configuration not stated) | 165 to 167 |
